# Reference: patent publication US20240344014A1, “3D SHELL MICR[…] FOR EL[…] ORGANOIDS” (The Johns Hopkins University, priority 2023, published 2024)
# System: brain organoids
# Test: 3D shell MEA recording of brain organoid electrical activity with glutamate stimulation
# Assay type: cell-based, human
# Settings: brain organoid in 3D shell MEA
# Text: A 9-week brain organoid was placed at the center of the shell electrodes during self-folding, which allowed the organoid to be enveloped within the leaflets with the PEDOT: PSS electrodes in intimate contact with the organoid (FIG. 10B). A glass cylinder was placed around the device to hold the cell media. Electrode outputs were fabricated for signal acquisition (FIG. 10A). The three PEDOT: PSS electrodes on the leaflets successfully recorded the field potential of the enveloped brain organoid (FIG. 10C, FIG. 11). […] The overlaid spike waveform indicates an average spike duration of ˜2 ms, with varied amplitude during the recording (FIG. 10E). We note that we can add more electrodes to the leaflets to improve the recording (FIGS. 12A-12F, FIGS. 13A-13D).
# We further confirm that the signal recorded is from the brain organoids by examining the response to 20 μM glutamate neurotransmitter added to the culture media that served as a positive control for the spontaneous recording (23, 37). […]
# After preprocessing the raw signals, we detected spikes separate for each channel using a threshold-based method, where the threshold is automatically set to be 5σn. […] After spike locations were detected, we isolated them by windows of length 3.5 ms. […]
smiles,measurement,setting,value
N[C@@H](CCC(=O)O)C(=O)O [glutamate],"spike signal-to-noise ratio (SNR), increase of median (amplitude of firing spikes)","20 μM glutamate added to the culture media, before vs after application",57.6%
same,inter-spike-interval (ISI) of glutamate-induced signals,"20 μM glutamate, before vs after stimulation",longer
